Experimental findings from ChEMBL document CHEMBL1131791 (Bioorg Med Chem Lett, 1999) are described below.

The target of assay [1] is D(3) dopamine receptor (Homo sapiens, UniProt P35462). The assay is described as follows: Ability to displace [3H]spiperone from the cloned human D3 dopamine receptor stably expressed in Chinese hamster ovary (CHO) cells was determined. In kind it is cell-based.
Assay [2] has as its target D(1A) dopamine receptor (Bos taurus, UniProt Q95136). In words: Ability to displace D1 selective radioligand [3H]-SCH- 23390 in bovine striatal membrane preparations was determined. In kind it is cell membranes, Striatum.
Assay [3] has as its target T1, D(2) dopamine receptor (Homo sapiens, UniProt P14416). In words: Ability to displace [3H]spiperone from the cloned human Dopamine receptor D2S stably expressed in Chinese hamster ovary (CHO) cells was determined. In kind it is cell-based.
Assay [4] concerns the target T2, D(4) dopamine receptor (Homo sapiens, UniProt P21917).
T2 sequence (P21917 whole entry): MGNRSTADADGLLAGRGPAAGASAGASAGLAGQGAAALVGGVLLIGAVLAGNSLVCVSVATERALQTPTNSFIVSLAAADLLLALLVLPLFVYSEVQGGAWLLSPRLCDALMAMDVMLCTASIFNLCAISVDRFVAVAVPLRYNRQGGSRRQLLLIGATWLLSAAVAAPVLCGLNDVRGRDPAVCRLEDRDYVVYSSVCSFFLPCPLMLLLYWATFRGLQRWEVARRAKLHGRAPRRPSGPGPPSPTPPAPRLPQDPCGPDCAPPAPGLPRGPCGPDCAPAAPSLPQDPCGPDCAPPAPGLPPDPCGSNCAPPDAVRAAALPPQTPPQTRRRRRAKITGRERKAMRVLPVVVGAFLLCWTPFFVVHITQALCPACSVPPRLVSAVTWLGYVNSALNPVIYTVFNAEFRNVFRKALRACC
In words: Binding affinity of compound towards human cloned Dopamine receptor D4.4 expressed in CHO cells using [3H]spiperone as radioligand. The assay is classed as cell-based.

The target in assay [5] is T1, D(2) dopamine receptor. The assay is described as follows: Ability to displace [3H]spiperone from the cloned human Dopamine receptor D2L stably expressed in Chinese hamster ovary (CHO) cells was determined. The assay is classed as cell-based.

Each structure is given as a SMILES string.

Sequence of D(3) dopamine receptor (P35462 whole entry): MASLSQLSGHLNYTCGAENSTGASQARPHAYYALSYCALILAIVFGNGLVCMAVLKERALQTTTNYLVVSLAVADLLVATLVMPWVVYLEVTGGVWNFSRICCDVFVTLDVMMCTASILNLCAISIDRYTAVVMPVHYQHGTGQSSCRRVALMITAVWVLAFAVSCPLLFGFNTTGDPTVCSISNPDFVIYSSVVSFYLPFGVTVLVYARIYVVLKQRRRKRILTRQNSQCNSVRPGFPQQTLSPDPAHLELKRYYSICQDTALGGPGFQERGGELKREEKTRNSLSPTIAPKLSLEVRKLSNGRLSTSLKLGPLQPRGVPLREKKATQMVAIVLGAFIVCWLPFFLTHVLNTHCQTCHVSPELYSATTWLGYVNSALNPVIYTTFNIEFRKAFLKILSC
T1 sequence (P14416 whole entry): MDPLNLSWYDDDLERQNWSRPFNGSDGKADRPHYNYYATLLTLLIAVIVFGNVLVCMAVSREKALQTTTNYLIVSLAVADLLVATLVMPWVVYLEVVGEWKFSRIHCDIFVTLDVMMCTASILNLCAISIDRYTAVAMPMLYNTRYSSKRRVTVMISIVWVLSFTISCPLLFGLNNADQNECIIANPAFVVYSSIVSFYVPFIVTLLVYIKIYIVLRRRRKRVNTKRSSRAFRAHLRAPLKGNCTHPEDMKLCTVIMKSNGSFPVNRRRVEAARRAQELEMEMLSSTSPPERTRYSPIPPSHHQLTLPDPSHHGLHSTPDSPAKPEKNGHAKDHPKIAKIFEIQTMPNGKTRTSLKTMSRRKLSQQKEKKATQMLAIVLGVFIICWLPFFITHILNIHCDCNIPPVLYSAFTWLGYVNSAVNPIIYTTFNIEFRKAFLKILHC
Sequence of D(1A) dopamine receptor (Q95136 whole entry): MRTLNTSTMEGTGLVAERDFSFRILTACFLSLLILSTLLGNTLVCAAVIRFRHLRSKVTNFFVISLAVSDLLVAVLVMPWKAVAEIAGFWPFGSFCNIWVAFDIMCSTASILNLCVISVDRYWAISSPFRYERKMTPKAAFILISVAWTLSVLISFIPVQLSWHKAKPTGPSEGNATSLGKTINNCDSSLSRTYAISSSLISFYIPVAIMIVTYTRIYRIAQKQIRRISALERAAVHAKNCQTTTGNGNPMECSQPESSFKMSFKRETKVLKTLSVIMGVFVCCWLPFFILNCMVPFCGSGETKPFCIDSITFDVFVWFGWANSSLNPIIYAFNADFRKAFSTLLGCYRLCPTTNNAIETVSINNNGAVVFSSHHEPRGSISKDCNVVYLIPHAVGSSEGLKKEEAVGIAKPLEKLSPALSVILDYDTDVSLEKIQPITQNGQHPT

One may read the Ki as the dissociation constant of the complex between target and ligand, obtained from inhibition or displacement. On to `N#CC(C#N)=Cc1ccc(CN2CCN(c3ccccc3)CC2)[nH]1`, for which the Ki was 5.25 µM in assay [1]; 58 µM in assay [2]; above 100 µM in assay [3]; 0.0093 µM in assay [4]; above 100 µM in assay [5].

Take `N#CC(C#N)=Cc1cc(CN2CCN(c3ccc(Cl)cc3)CC2)c[nH]1`: the Ki came out at 6.95 µM in assay [1]; 5.3 µM in assay [2]; 10.3 µM in assay [3]; 0.0057 µM in assay [4]; 7.35 µM in assay [5].

In the case of `N#CC(C#N)=Cc1cc(CN2CCN(c3ccccc3)CC2)c[nH]1`, the Ki in assay [1] came out at 2.35 µM; in assay [2], 7.2 µM; in assay [3], 0.975 µM; in assay [4], 0.0039 µM; in assay [5], 1.85 µM.

Turning to `N#CC(C#N)=Cc1[nH]ccc1CN1CCN(c2ccc(Cl)cc2)CC1`, the Ki came to 7.6 µM in assay [1]; 13.5 µM in assay [2]; 15 µM in assay [3]; 0.125 µM in assay [4]; 8.95 µM in assay [5].

On to `N#CC(C#N)=Cc1ccc(CN2CCN(c3ccc(Cl)cc3)CC2)[nH]1`, for which the Ki worked out at 31 µM in assay [1]; 39.5 µM in assay [2]; 59 µM in assay [3]; 0.011 µM in assay [4]; 48.5 µM in assay [5].

As to `N#CC(C#N)=Cc1[nH]ccc1CN1CCN(c2ccccc2)CC1`, the Ki came out at 6.95 µM in assay [1]; 22 µM in assay [2]; 12.8 µM in assay [3]; 0.16 µM in assay [4]; 4 µM in assay [5].
